Results as given in ChEMBL document CHEMBL3886897, “Macrocyclic indole derivatives useful as hepatitis C virus inhibitors” (2016).

Tests used:
[1] = target: RNA-directed RNA polymerase (Hepacivirus hominis) (UniProt O39930)
[2] = target: RNA-directed RNA polymerase (Hepacivirus hominis) (UniProt O39930); remark: listed apart in the source
[3] = target: RNA-directed RNA polymerase (Hepacivirus hominis) (UniProt O39930); remark: listed apart in the source
[4] = target: RNA-directed RNA polymerase (Hepacivirus hominis) (UniProt O39930); remark: listed apart in the source
[5] = target: RNA-directed RNA polymerase (Hepacivirus hominis) (UniProt O39930); remark: listed apart in the source
[6] = target: RNA-directed RNA polymerase (Hepacivirus hominis) (UniProt O39930); remark: listed apart in the source
[7] = target: RNA-directed RNA polymerase (Hepacivirus hominis) (UniProt O39930); remark: listed apart in the source
[8] = target: RNA-directed RNA polymerase (Hepacivirus hominis) (UniProt O39930); remark: listed apart in the source
[9] = target: RNA-directed RNA polymerase (Hepacivirus hominis) (UniProt O39930); remark: listed apart in the source
[10] = target: RNA-directed RNA polymerase (Hepacivirus hominis) (UniProt O39930); remark: listed apart in the source

Chain of RNA-directed RNA polymerase (Hepacivirus hominis) (O39930 1-591): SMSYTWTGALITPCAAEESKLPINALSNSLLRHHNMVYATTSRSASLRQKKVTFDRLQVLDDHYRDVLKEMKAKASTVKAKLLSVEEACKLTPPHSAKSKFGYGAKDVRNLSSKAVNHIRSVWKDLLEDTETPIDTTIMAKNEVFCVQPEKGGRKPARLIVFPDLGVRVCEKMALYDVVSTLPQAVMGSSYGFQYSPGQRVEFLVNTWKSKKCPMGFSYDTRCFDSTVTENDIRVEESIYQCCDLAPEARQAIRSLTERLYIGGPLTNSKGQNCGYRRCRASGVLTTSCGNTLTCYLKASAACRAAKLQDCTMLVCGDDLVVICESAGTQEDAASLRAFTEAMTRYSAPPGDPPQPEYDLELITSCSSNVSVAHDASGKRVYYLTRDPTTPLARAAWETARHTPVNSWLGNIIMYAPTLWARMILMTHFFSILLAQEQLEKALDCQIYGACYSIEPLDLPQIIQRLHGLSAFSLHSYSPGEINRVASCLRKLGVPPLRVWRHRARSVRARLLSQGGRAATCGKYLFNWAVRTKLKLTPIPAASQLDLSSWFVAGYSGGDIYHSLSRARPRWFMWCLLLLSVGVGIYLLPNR

SMILES	k off [1]	other results
COc1ccc2c(c1)C=C1Cn3c-2c(C2CCCCC2)c2ccc(cc23)C(=O)NS(=O)(=O)N(C)CCOCCN(C)C1=O	9e-05 s⁻¹	k off [2]: 0.0001 s⁻¹; k off [3]: 0.022 s⁻¹; k off [4]: 0.00097 s⁻¹; k off [5]: 0.022 s⁻¹; k off [6]: 0.00084 s⁻¹; k off [7]: 0.00015 s⁻¹; k off [8]: 0.00015 s⁻¹; k off [9]: 0.00013 s⁻¹; k off [10]: 7.6e-05 s⁻¹
COc1ccc2c(c1)C(C)=C1Cn3c-2c(C2CCCCC2)c2ccc(cc23)C(=O)NS(=O)(=O)N(C)CCCCN(C)C1=O	0.00016 s⁻¹	–
COc1ccc2c(c1)C(C)=C1Cn3c-2c(C2CCCCC2)c2ccc(cc23)C(=O)NS(=O)(=O)N(C)CCOCCN(C)C1=O	3.6e-05 s⁻¹	–
COc1ccc2c(c1)C=C1Cn3c-2c(C2CCCCC2)c2ccc(cc23)C(=O)NS(=O)(=O)N(C)CCCCNC1=O	4.1e-05 s⁻¹	–
COc1ccc2c(c1)C=C1Cn3c-2c(C2CCCCC2)c2ccc(cc23)C(=O)NS(=O)(=O)N(C)CCCCN(C)C1=O	4.8e-05 s⁻¹	–
CN1CCCCN(C)S(=O)(=O)NC(=O)c2ccc3c(C4CCCCC4)c4n(c3c2)CC(=Cc2ccc(Cl)cc2-4)C1=O	0.0037 s⁻¹	–
CN1CCCCCNC(=O)C2=Cc3ccc(Cl)cc3-c3c(C4CCCCC4)c4ccc(cc4n3C2)C(=O)NS1(=O)=O	0.0038 s⁻¹	–
COc1ccc2c(c1)C=C1Cn3c-2c(C2CCCCC2)c2ccc(cc23)C(=O)NS(=O)(=O)N(C(C)C)CCCCN(C)C1=O	6.6e-05 s⁻¹	–
COc1ccc2c(c1)C=C1Cn3c-2c(C2CCCCC2)c2ccc(cc23)C(=O)NS(=O)(=O)NCCCCN(C)C1=O	0.00031 s⁻¹	–
